These are literature values, as cited in US10563263B2, “Genetic polymorphisms associated with statin response and cardiovascular diseases, methods of detection and uses thereof” (CELERA CORPORATION, priority 2010, dated 2020).

The test system of the data set is myocyte cultures. To be noted: animal models and myocyte cultures; compared to lipophilic statins; cited from earlier work.

Take `CC[C@H](C)C(=O)O[C@H]1C[C@H](O)C=C2C=C[C@H](C)[C@H](CC[C@@H](O)C[C@@H](O)CC(=O)O)[C@H]21` [Pravastatin, pravastatin]: the myopathic potential result was “low myopathic potential”.
